Data published in EP0462621A2, “Use of particular compounds for manufacture of pharmaceutical formulations for treatment against various parasites, mycoplasmas, other indications and other infections” (Prendergast, Patrick Thomas, priority 1990, dated 1991).

What was measured:
L donovani = assay: Amastigotes (AM) in cell lines, in-vitro; assay type: cell-based; conditions: Ld., Amastigote; note: key: - no/poor activity,; + fair/moderate activity,; ++ good/excellent activity
Excerpt: (§1) Amastigotes of Leishmania can be cultivated in a wide range of mammalian cells, some of which may be used in in-vitro screens. These include (1) a Sticker dog sarcoma (fibroblast) cell line, (2) transformed rodent macrophage cell lines, (3) primary isolated mouse peritoneal macrophages (MP mo), and (4) human monocyte-derived macrophages (HM mo). The methods are similar for all models. Amastigote or promastigote infected cells are maintained in a medium containing the drug for 4-7 days, at 37 C for L. donovani and 33-35 C for L. major and L. mexicana. Drug activity is then assessed by counting (I) the number of infected host cells and/or (II) the number of amastigotes/100 host cells.
(§2) In-vitro and in-vivo models were used to test activities of a selection of many compounds. Those activities are summarized in Tables 1-3, showing variation between systems and species. Activities measured in the MP mo and HM mo models have shown the best correlation with results obtained in hamster and mouse models.

L major/L mexicana = assay: Amastigotes (AM) in cell lines, in-vitro; assay type: cell-based; conditions: Lm., Amastigote; note: key: - no/poor activity,; + fair/moderate activity,; ++ good/excellent activity
Excerpt: as §1, §2

[1] = Case study two: HIV positive patient, IPA orally; assay type: in vivo, human
Description: In another case study, […], a homosexual person, was diagnosed HIV positive in June, 1986. […] was also diagnosed as having hepatitis at that time. Beginning on May 7, 1990, IPA was administered orally to […] On May 7, 1990, […] was experiencing (1) weight loss, (2) night sweats, (3) thrush, (4) fungal infections, (5) pneumonia, (6) diarrhea, and (7) hairy leukoplakia.
Prior to treatment with IPA, V.T. had experienced diarrhea and night sweats for the previous six weeks. […] […] […] As of July 26, 1990, V.T.'s helper/suppressor ration was 0.93.

**Q.** For CC(C)=CCNc1ncnc2c1ncn2[C@@H]1O[C@H](CO)[C@@H](O)[C@H]1O [IPA, N^6-(Δ^2-isopentenyl) adenosine], which “Activity, AM in cell lines” value (L donovani) is on record?
**A.** -

**Q.** And the “Activity, AM in cell lines” value (L major/L mexicana)?
**A.** +

**Q.** And the toxic side effects [1]?
**A.** no permanent toxic side effects

**Q.** And the weight stabilized at [1]?
**A.** 133 lbs

**Q.** What about the hairy leukoplakia ([1]; IPA orally) of the same compound?
**A.** complete remission

**Q.** What about the helper/suppressor ratio ([1]; July 26, 1990) of the same compound?
**A.** 0.93

**Q.** What about the weight ([1]; June 11, 1990, 119 lbs on May 7, 1990 (start of IPA)) of the same compound?
**A.** 132 lbs

**Q.** What about the helper/suppressor ratio ([1]; June 21, 1990, 0.53 on May 7, 1990) of the same compound?
**A.** 0.65

**Q.** What about the T4 count ([1]; June 21, 1990, 207 on May 7, 1990) of the same compound?
**A.** 330

**Q.** And the “time in which diarrhea and night sweats cleared” value ([1]; after the beginning of the treatment, symptoms for the previous six weeks)?
**A.** ≤ 48 h

**Q.** What about the weight gain ([1]; over the first month of treatment) of the same compound?
**A.** about 0.5 lbs per day
